The supplement of paper PMC10307832

Legend:
Test in all cases: relative viability (nuclei count vs DMSO), 5 days (fraction); higher = more cells survive
[1] = compound: COC1=C(C=C(C=C1)C2=CC3=NC=CN3C(=N2)NC4=C(C=CC=N4)C(=O)N)OC [BAY61-3606] + N=C(N)NC(=N)NCCc1ccccc1 [Phenformin] (partner 250 µM)
How it was run: (§1)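 For relative viability, nuclei counts in treated wells were divided by those in vehicle wells. Lung cancer cell lines had been pin-tool dosed in 1536-well plates the day after seeding and cultured for 5 days, then fixed and stained in one step (final 0.05% Triton X-100, 1% formaldehyde, 1 ug/ml Hoechst) and imaged at 4×. Doses were one drug alone or a fixed anchor-drug dose plus five library-drug doses (not always all listed) in √10 steps, and values are duplicate-plate medians.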

[2] = compound: COC1=C(C=C(C=C1)C2=CC3=NC=CN3C(=N2)NC4=C(C=CC=N4)C(=O)N)OC [BAY61-3606] + CC(=O)Nc1cccc(-n2c(=O)n(C3CC3)c(=O)c3c(Nc4ccc(I)cc4F)n(C)c(=O)c(C)c32)c1 [Trametinib] (partner 0.02 µM)
How it was run: as §1

[3] = compound: COc1cccc2c1C(=O)c1c(O)c3c(c(O)c1C2=O)C[C@@](O)(C(=O)CO)C[C@@H]3O[C@H]1C[C@H](N)[C@H](O)[C@H](C)O1 [Doxorubicin] + CC1(C)CCC(c2ccc(Cl)cc2)=C(CN2CCN(c3ccc(C(=O)NS(=O)(=O)c4ccc(N[C@H](CCN5CCOCC5)CSc5ccccc5)c(S(=O)(=O)C(F)(F)F)c4)cc3)CC2)C1 [Navitoclax] (partner 0.5 µM)
How it was run: as §1

[4] = compound: COC1=C(C=C(C=C1)C2=CC3=NC=CN3C(=N2)NC4=C(C=CC=N4)C(=O)N)OC [BAY61-3606] + Nc1ncn([C@H]2C[C@H](O)[C@@H](CO)O2)c(=O)n1 [Decitabine] (partner 2 µM)
How it was run: as §1

Cell Line | relative viability ([1]; first compound 0.02 µM) | relative viability ([1]; first compound 0.06325 µM) | relative viability ([1]; first compound 0.2 µM) | relative viability ([1]; first compound 0.6325 µM) | relative viability ([1]; first compound 2 µM) | relative viability ([2]; first compound 0.02 µM) | relative viability ([2]; first compound 0.06325 µM) | relative viability ([2]; first compound 0.2 µM) | relative viability ([2]; first compound 0.6325 µM) | relative viability ([2]; first compound 2 µM) | relative viability ([3]; first compound 0.001 µM) | relative viability ([3]; first compound 0.003162 µM) | relative viability ([3]; first compound 0.01 µM) | relative viability ([3]; first compound 0.03162 µM) | relative viability ([3]; first compound 0.1 µM) | relative viability ([4]; first compound 0.02 µM) | relative viability ([4]; first compound 0.06325 µM) | relative viability ([4]; first compound 0.2 µM) | relative viability ([4]; first compound 0.6325 µM) | relative viability ([4]; first compound 2 µM)
CAL-12T | 0.559 | 0.592 | 0.502 | 0.557 | 0.266 | 0.359 | 0.372 | 0.346 | 0.347 | 0.229 | 1.09 | 1.16 | 1.24 | 0.423 | 0.182 |  |  |  |  | 
NCI-H23 | 0.85 | 0.796 | 0.764 | 0.78 | 0.714 | 0.437 | 0.347 | 0.348 | 0.393 | 0.372 |  | 0.686 | 0.767 | 0.698 | 0.926 | 0.393 | 0.329 | 0.363 | 0.346 | 0.383
NCI-H1651 | 0.332 | 0.311 | 0.325 | 0.279 | 0.302 | 0.929 | 0.809 | 0.833 | 0.844 | 0.762 | 0.991 | 1.19 | 0.801 | 0.436 | 0.204 | 0.621 | 0.539 | 0.555 | 0.568 | 0.481
BEN | 0.272 | 0.257 | 0.294 | 0.284 | 0.255 | 1.21 | 1.01 | 1.11 | 1.21 | 1.2 | 0.0762 | 0.071 | 0.0683 | 0.0474 | 0.0661 | 0.798 | 0.688 | 0.77 | 0.769 | 0.755
EMC-BAC-2 | 0.582 | 0.509 | 0.485 | 0.521 | 0.444 | 0.938 | 0.883 | 0.944 | 1.17 | 1.05 | 1.16 | 1.25 | 1.16 | 1.19 | 1.15 | 1.07 | 1.06 | 1.04 | 1.19 | 0.986
LXF-289 | 0.494 | 0.526 | 0.462 | 0.549 | 0.491 | 0.694 | 0.673 | 0.722 | 0.752 | 0.766 | 0.935 | 0.939 | 0.873 | 0.983 | 0.944 | 0.399 | 0.402 | 0.411 | 0.396 | 0.405
ABC-1 | 0.254 | 0.269 | 0.219 | 0.227 | 0.284 |  |  |  |  |  |  |  |  |  |  | 1.04 | 1.08 | 0.957 | 1.22 | 0.97
